Read-outs that look alike come from different tables or passages of the source.
How the values were obtained:
SN12C = assay: NCI in vitro human tumor cell line screen, renal cancer; format: cell-based
CNS cancer = assay: NCI screen, CNS cancer dose response curves; format: cell-based, human; conditions: FIG. 3, vs paclitaxel
MOLT-2 = assay: NCI in vitro human tumor cell line screen, leukemia; format: cell-based; conditions: MOLT-2, leukemia, 48 hours
U251 = assay: NCI in vitro human tumor cell line screen, CNS cancer; format: cell-based; conditions: U-251, 48 hours
SNB-19 = assay: as above; format: cell-based; conditions: SNB-19, CNS cancer, 48 hours
NCI-H23 = assay: NCI in vitro human tumor cell line screen, non small lung cancer; format: cell-based
COLO205 = assay: NCI in vitro human tumor cell line screen, colon cancer; format: cell-based
SF-539 = assay: NCI in vitro human tumor cell line screen, CNS cancer; format: cell-based; conditions: SF-539, CNS cancer, 48 hours
HL-60TB = assay: NCI in vitro human tumor cell line screen, leukemia; format: cell-based
NCI-H322M = assay: NCI in vitro human tumor cell line screen, non small lung cancer; format: cell-based; conditions: 48 hours
DU-145 = assay: NCI in vitro human tumor cell line screen, prostate cancer; format: cell-based
RPMI-8226 = assay: NCI in vitro human tumor cell line screen, leukemia; format: cell-based; conditions: RPMI-8226, leukemia, 48 hours
[1] = system: various cancer cell lines; assay: NCI in vitro human tumor cell line screen, various cancer cell lines; format: cell-based; conditions: for IC (TGI): Homo sapiens, 48 h, read-out: TGI values (concentrations), order of magnitude
Protocol: (§1) Compounds were tested as described (Monks, A. et al., (1991). J. Nat. Cancer Int., 83, 757-766; Boyd, M. R., and Paull, K. D., (1995) "Some practical considerations and applications of the National Cancer Institute In Vitro Anticancer Drug Discovery Program", Drug Development Res., 34, 91-109 in the NCI in vitro human tumor cell line screen). The compounds were examined in 60 different cell lines. The following definitions are based on the National Cancer Institute in vitro screen protocol (Boyd, M. R., and Paull, K. D., (1995) "Some practical considerations and applications of the National Cancer Institute In Vitro Anticancer Drug Discovery Screen", ibid., 34, 91-109).
(§2) The "50% growth inhibition" parameter (GI50) is the concentration of test drug where: [formula]
(§3) T is the optical density of the test well after 48 hours drug exposure, T0 is the optical density at time zero, and C is the control optical density, PG is the "percent growth". It is a T/C like parameter that can have values from +100 to -100.
(§4) Total Growth Inhibition (TGI) signifies the cytostatic level effect: [formula]
The LC50 is the lethal dose concentration, "net cell killing" or cytotoxicity parameter: [formula]
(§5) The GI50, TGI and LC50 values were calculated by interpolation using the tested concentrations that give PG values above and below the response reference values (e.g. 50 for GI50). Dose-response curves are compared for compound 1 and paclitaxel for breast cancer, ovarian cancer, CNS cancer and non-small lung cancer in FIGS. 1-4 respectively.

SF-295 = assay: NCI in vitro human tumor cell line screen, CNS cancer; format: cell-based
HCT-116 = assay: NCI in vitro human tumor cell line screen, colon cancer; format: cell-based; conditions: HCT-116, colon cancer, 48 hours
SF-268 = assay: NCI in vitro human tumor cell line screen, CNS cancer; format: cell-based; conditions: for GI50: Homo sapiens
RXF-393 = assay: NCI in vitro human tumor cell line screen, renal cancer; format: cell-based
A549/ATCC = assay: NCI in vitro human tumor cell line screen, non small lung cancer; format: cell-based; conditions: 48 hours
PC-3 = assay: NCI in vitro human tumor cell line screen, prostate cancer; format: cell-based
ADR-RES = assay: NCI in vitro human tumor cell line screen, breast cancer; format: cell-based; conditions: vs paclitaxel
breast cancer cell lines = assay: NCI screen, breast cancer cell lines as a group; format: cell-based, human; conditions: for GI50: Homo sapiens, 48 h, read-out: GI50 values, range
MCF-7 = assay: NCI in vitro human tumor cell line screen, breast cancer; format: cell-based
[2] = Water solubility as equilibrium concentration by HPLC
Protocol: The water solubility of compound 1 was determined as an equilibrium concentration at room temperature using HPLC measurements.

OVCAR-5 = assay: NCI in vitro human tumor cell line screen, ovarian cancer; format: cell-based
SK-OV-3 = assay: as above; format: cell-based; conditions: SK-OV-3, ovarian cancer, 48 hours
[3] = system: ovarian cancer cell lines; assay: NCI screen, ovarian cancer cell lines as a group; format: cell-based, human; conditions: for GI50: Homo sapiens, read-out: GI50 values, range
HT-29 = assay: NCI in vitro human tumor cell line screen, colon cancer; format: cell-based
Protocol: as §1, §2, §3, §4, §5

IGROVI = assay: NCI in vitro human tumor cell line screen, ovarian cancer; format: cell-based; conditions: vs paclitaxel
NCI-H522 = assay: NCI in vitro human tumor cell line screen, non small lung cancer; format: cell-based; conditions: 48 hours
T-47D = assay: NCI in vitro human tumor cell line screen, breast cancer; format: cell-based
786-0 = assay: NCI in vitro human tumor cell line screen, renal cancer; format: cell-based
OVCAR-3 = assay: NCI in vitro human tumor cell line screen, ovarian cancer; format: cell-based
HCT-15 = assay: NCI in vitro human tumor cell line screen, colon cancer; format: cell-based
UACC-62 = assay: NCI in vitro human tumor cell line screen, melanoma; format: cell-based; conditions: UACC-62, melanoma, vs paclitaxel
[4] = system: non-small cell lung cancer; assay: NCI screen, non-small cell lung cancer dose response curves; format: cell-based, human; conditions: FIG. 4, vs paclitaxel
HCC-2998 = assay: NCI in vitro human tumor cell line screen, colon cancer; format: cell-based; conditions: HCC-2998, colon cancer, 48 hours
OVCAR-8 = assay: NCI in vitro human tumor cell line screen, ovarian cancer; format: cell-based; conditions: OVCAR-8, ovarian cancer, 48 hours
SW-620 = assay: NCI in vitro human tumor cell line screen, colon cancer; format: cell-based; conditions: SW-620, colon cancer, 48 hours
HOP-62 = assay: NCI in vitro human tumor cell line screen, non small lung cancer; format: cell-based; conditions: HOP-62, non small lung cancer, 48 hours
EKVX = assay: as above; format: cell-based; conditions: 48 hours
SNB-75 = assay: NCI in vitro human tumor cell line screen, CNS cancer; format: cell-based; conditions: for GI50: Homo sapiens
Protocol: as §1, §2, §3, §4, §5

HS578T = assay: NCI in vitro human tumor cell line screen, breast cancer; format: cell-based; conditions: Hs-578T
Protocol: as §1, §2, §3, §4, §5

MDA-MB-435 = assay: as above; format: cell-based; conditions: 48 h, MDA-MB-435, breast cancer, read-out: TGI (total growth inhibition)
Protocol: as §1, §2, §3, §4, §5

MDA-N = assay: as above; format: cell-based
Protocol: as §1, §2, §3, §4, §5

CCRF-CEM = assay: NCI in vitro human tumor cell line screen, leukemia; format: cell-based
NCI-H226 = assay: NCI in vitro human tumor cell line screen, non small lung cancer; format: cell-based; conditions: 48 hours
[5] = 48 h, read-out: TGI (total growth inhibition)

CC(=O)OC1C(=O)C2(C)C(O)CC3OCC3(OC(C)=O)C2C(OC(=O)c2ccccc2)C2(O)CC(OC(=O)C(OC(=O)CCC(=O)NCCCC(=O)OC3C(O)C(O)OC(CO)C3O)C(NC(=O)c3ccccc3)c3ccccc3)C(C)=C1C2(C)C (stereo not drawn) [chackol, (3-glucose) GABA paclitaxel succinate]
GI50 (SN12C; Homo sapiens, renal cancer, 48 hours): 481 pM | times more active than paclitaxel (GI50) (SN12C; vs paclitaxel): 16 times | dose response curve compared with paclitaxel (CNS cancer): extend one log unit lower than those for paclitaxel | GI50 (MOLT-2): 487 pM | GI50 (U251): 363 pM | GI50 (SNB-19): 354 pM | GI50 (NCI-H23; Homo sapiens, NCI-H23, non small lung cancer, 48 hours): 428 pM | times more active than paclitaxel (GI50) (NCI-H23; NCI-H23, vs paclitaxel): 107 times | times more active than paclitaxel (GI50) (COLO205; COLO25 (so in the source), vs paclitaxel): 19 times | GI50 (COLO205; Homo sapiens, COLO 205, COLO205, colon cancer, 48 hours): 247 pM | GI50 (SF-539): 220 pM | times more active than paclitaxel (GI50) (HL-60TB; HL-60 (TB), vs paclitaxel): 8 times | GI50 (HL-60TB; Homo sapiens, HL-60TB, leukemia, 48 hours): 249 pM | GI50 (NCI-H322M): 593 pM | times more active than paclitaxel (GI50) (DU-145; DU-145, vs paclitaxel): 12 times | GI50 (DU-145; Homo sapiens, DU-145, prostate cancer, 48 hours): 401 pM | GI50 (RPMI-8226): 266 pM | IC (TGI) ([1]; on the order of, various cancer cell lines): ~100 pM | dose response curves compared with paclitaxel ([1]; breast, ovarian, CNS, non-small lung cancer, FIGS. 1-4): extend one log unit lower | growth inhibition (GI50) compared with paclitaxel ([1]; in general, vs paclitaxel): active at a much lower concentration as compared to paclitaxel | total growth inhibition compared with paclitaxel ([1]; various cancer cell lines, vs paclitaxel): more active than paclitaxel | GI50 (SF-295; Homo sapiens, SF-295, CNS cancer, 48 hours): 1440 pM | times more active than paclitaxel (GI50) (SF-295; SF-295, vs paclitaxel): 25 times | GI50 (HCT-116): 228 pM | GI50 (SF-268; SF-268, CNS cancer, 48 hours, read-out: GI50): 275 pM | times more active than paclitaxel (GI50) (SF-268; SF-268, vs paclitaxel): 28 times | GI50 (RXF-393; Homo sapiens, RXF-393, renal cancer, 48 hours): 496 pM | times more active than paclitaxel (GI50) (RXF-393; RXF-393, vs paclitaxel): 23 times | GI50 (A549/ATCC): 575 pM | GI50 (PC-3; Homo sapiens, PC-3, prostate cancer, 48 hours): 276 pM | times more active than paclitaxel (GI50) (PC-3; PC-3, vs paclitaxel): 10 times | times more active than paclitaxel (GI50) (ADR-RES): 23 times | GI50 (breast cancer cell lines; breast lines MCF-7, ADR-RES and T-47D): 100 to 10000 pM | dose response curve compared with paclitaxel (breast cancer cell lines; breast cancer, FIG. 1, vs paclitaxel): extend one log unit lower than those for paclitaxel | GI50 (MCF-7; Homo sapiens, MCF7, MCF-7, breast cancer, 48 hours): 256 pM | times more active than paclitaxel (GI50) (MCF-7; MCF-7, vs paclitaxel): 15 times | solubility [2]: 240 µg/mL | GI50 (OVCAR-5; Homo sapiens, OVCAR-5, ovarian cancer, 48 hours): 156 pM | times more active than paclitaxel (GI50) (OVCAR-5; OVCAR-5, vs paclitaxel): 32 times | GI50 (SK-OV-3): 502 pM | GI50 ([3]; ovarian lines OVCAR-3, OVCAR-5 and IGROVI): ~100 pM | dose response curve compared with paclitaxel ([3]; ovarian cancer, FIG. 2, vs paclitaxel): extend one log unit lower than those for paclitaxel | times more active than paclitaxel (TGI) (HT-29; HT-29, colon cancer, vs paclitaxel): 303 times | times more active than paclitaxel (GI50) (HT-29; HT-29, vs paclitaxel): 40 times | GI50 (HT-29; Homo sapiens, HT-29, colon cancer, 48 hours): 127 pM | times more active than paclitaxel (GI50) (IGROVI): 45 times | GI50 (NCI-H522): 184 pM | GI50 (T-47D; Homo sapiens, T47D, breast cancer, 48 hours): 804 pM | times more active than paclitaxel (GI50) (T-47D; vs paclitaxel): 14 times | times more active than paclitaxel (GI50) (786-0; 786-0, vs paclitaxel): 11 times | GI50 (786-0; Homo sapiens, 786-0, renal cancer, 48 hours): 1330 pM | GI50 (OVCAR-3; Homo sapiens, OVCAR-3, ovarian cancer, 48 hours): 266 pM | times more active than paclitaxel (GI50) (OVCAR-3; OVCAR-3, vs paclitaxel): 18 times | times more active than paclitaxel (GI50) (HCT-15; HCT-15, vs paclitaxel): 7 times | GI50 (HCT-15; Homo sapiens, HCT-15, colon cancer, 48 hours): 27900 pM | times more active than paclitaxel (GI50) (UACC-62): 1490 times | dose response curve compared with paclitaxel [4]: extend one log unit lower than those for paclitaxel | GI50 (HCC-2998): 152 pM | GI50 (OVCAR-8): 437 pM | GI50 (SW-620): 348 pM | GI50 (HOP-62): 1130 pM | GI50 (EKVX): 1980 pM | GI50 (SNB-75; SNB-75, CNS cancer, 48 hours, read-out: GI50): 210 pM | times more active than paclitaxel (TGI) (SNB-75; SNB-75, CNS cancer, vs paclitaxel): 67 times | times more active than paclitaxel (GI50) (SNB-75; SNB-75, vs paclitaxel): 65 times | IC (TGI) (HS578T; [5]): 592 pM | GI50 (HS578T; 48 hours): 180 pM | IC (TGI) (MDA-MB-435): 215 pM | IC (TGI) (MDA-N; [5]): 294 pM | GI50 (MDA-N; 48 hours): 105 pM | GI50 (CCRF-CEM; Homo sapiens, leukemia, 48 hours): 313 pM | times more active than paclitaxel (GI50) (CCRF-CEM; vs paclitaxel): 8 times | GI50 (NCI-H226): 419 pM

CC(=O)O[C@H]1C(=O)[C@@]2(C)[C@H]([C@H](OC(=O)c3ccccc3)[C@]3(O)C[C@H](OC(=O)[C@H](O)[C@@H](NC(=O)c4ccccc4)c4ccccc4)C(C)=C1C3(C)C)[C@]1(OC(C)=O)CO[C@@H]1C[C@@H]2O [paclitaxel]
IC (TGI) [1]: 10000 to 100000 pM | GI50 (SF-268; SF-268, 48 h): 7610 pM | GI50 (breast cancer cell lines): 10000 to 100000 pM | GI50 ([3]; 48 h): 1000 to 10000 pM | GI50 (SNB-75; SNB-75, 48 h): 13600 pM

— patent US6218367A, “Paclitaxel-carbohydrate conjugates: design, synthesis and biological evaluations” (Organomed Corporation, priority 1999, dated 2001)
